Experimental data as given in patent US20160274120A1, “METHODS OF DETERMINING WHETHER THE WNT SIGNALING PATHWAY IS UPREGULATED IN A TUMOR” (ICAHN SCHOOL OF MEDICINE AT MOUNT SINAI, priority 2009, published 2016).

Key:
Format in all cases: cell-based, human
[1] = system: TCF reporter activity; assay: TCF mediated luciferase reporter activity (TOP/FOP) in NSCLC cell lines
Protocol: 24 hours before infection, stable reporter cell lines expressing TOP or FOP TCF luciferase and renilla luciferase were plated in 6 well plates at I×IO^5 cells/well. The following day cells were infected with lentiviruses expressing different Wnt antagonists, selected with 2 μg/ml puromycin for 3 days, lysed and processed for luciferase reporter assay using the dual luciferase reporter Kit (Promega) according to the manufacturer's protocol. Luciferase reporter activity was calculated by dividing the ratio TOP/RL by the FOP/RL ratio. Results were normalized to the results with vector transduced cultures.
analysis, cells were co-infected with TOP or FOP firefly luciferase mixed with a lentivirus expressing renilla luciferase (RL) used to normalize for infection efficiency (1:20-1:40 ratio). To assess the effects of FRP1 and DKK1 on TCF luciferase reporter activity, stable reporter cell lines were plated in 6 well plates and infected with vector, FRP1 or DKK1 lentiviruses. Cells were selected for 3 days with puromycin, lysed and processed for dual luciferase analysis. To generate stable inducible lines, cells were infected consecutively with tetracycline trans-activator (tTa) expressing lentivirus, selected for two weeks with 5-10 μg/ml blasticidin, followed by a second infection with lentiviruses expressing inducible FRP1, DKK1, DNTCF-4 or DNTCF-4-mOrange or empty vector, and selected for 4-7 days in 2 μg/ml puromycin in the presence of 10 ng/ml doxycycline. For induction of the antagonists, cells were trypsinized, washed with PBS and plated into 10 cm plates in the presence or absence of doxycyclin. Control cells expressing tTa or empty vector were processed in the same way. All infections were performed for 16 hr in the presence of 8 μg/ml polybrene.

[2] = system: axin2; assay: Real time PCR quantification of axin2 mRNA expression in NSCLC cells
Protocol: (§1) Total RNA was isolated from cells using the Trizol Reagent (Invitrogen) according to the manufacturer's protocol. Semi-quantitative RT-PCR screen was performed using One Step RT-PCR Kit (Invitrogen) according to the manufacturer's protocol. PCR products were separated on 1% agarose gel. 5 μg total RNA was reverse transcribed using Superscript II reverse transcriptase (Invitrogen). Quantitative PCR was performed using SybrGreen 2× master mix (Roche) on a MJ Opticon or Stratagene MxPro3005. 50 ng cDNA were amplified as follows: 94° C. for 15 min, 94° C. for 15 s, 60° C. for 30 s, 72° C. for 1 min. Steps 2 through 4 were repeated for 40 cycles. Each reaction was performed in duplicate, and results of 3 independent experiments were used for statistical analysis. Relative mRNA expression levels were quantified using the ΔΔC(t) method (Pfaffl, 2001). Results were normalized to those for TATA Binding Protein (TBP). Primer sequences can be found in Tables 4 and 5.

[3] = system: Wnt3a; assay: shRNA knockdown quantification of Wnt3a mRNA; details: H1819 cells, lentiviral shRNA
Source text: (§2) An shRNA construct targeting human Wnt2 was obtained from Open Biosystems. The 21 bp sequence was 5′-[…]-3′ (SEQ ID NO: 1). An shRNA construct targeting GFP containing 21 bp sequence 5′ […]-3′ (SEQ ID NO: 2), was obtained from Addgene. An shRNA construct targeting human Wnt3a was generated and had the following sequence 5′-GGCGTGGCTTCTGCAGAA-3′ (SEQ ID NO: 61). Viruses were produced in 293T cells using FuGENE 6 (Roche) as described above.
as §1

[4] = system: Wnt2; assay: shRNA knockdown quantification of Wnt2 mRNA; details: H23 cells, lentiviral shRNA
Source text: as §2, §1

## Wnt3a shRNA: shRNA construct targeting human Wnt3a, 5′-GGCGTGGCTTCTGCAGAA-3′ (SEQ ID NO: 61) [reference compound]
[1]; H1819 cells, Wnt3a knockdown
  TCF mediated luciferase reporter activity: significant decrease
[2]; H1819 cells, Wnt3a knockdown
  axin2 expression: significant decrease
[3]
  knock down of Wnt3a mRNA expression: 70%

## Wnt2 shRNA: shRNA construct targeting human Wnt2 from Open Biosystems, 5′-GCTCATGTACTCTCAGGACAT-3′ (SEQ ID NO: 1) (GCTCATGTACTCTCAGGDCAT; chemistry not fully specified) [reference compound]
[1]; H23 cells, Wnt2 knockdown
  TCF mediated luciferase reporter activity: significant decrease
[2]; H23 cells, Wnt2 knockdown
  axin2 expression: significant decrease
[4]
  knock down of Wnt2 mRNA expression: 80%
